{"source": "patent US20230002375A1", "about": "“HYDROPYRAZINO[1,2-B]ISOQUINOLINE COMPOUNDS FOR THE TREATMENT OF AUTOIMMUNE DISEASE” (Hoffmann-La Roche Inc., priority 2019, published 2023)"}
{"target": "T1, human TLR9 (Homo sapiens, UniProt Q9NR96)", "T1 sequence (Q9NR96 26-1032)": "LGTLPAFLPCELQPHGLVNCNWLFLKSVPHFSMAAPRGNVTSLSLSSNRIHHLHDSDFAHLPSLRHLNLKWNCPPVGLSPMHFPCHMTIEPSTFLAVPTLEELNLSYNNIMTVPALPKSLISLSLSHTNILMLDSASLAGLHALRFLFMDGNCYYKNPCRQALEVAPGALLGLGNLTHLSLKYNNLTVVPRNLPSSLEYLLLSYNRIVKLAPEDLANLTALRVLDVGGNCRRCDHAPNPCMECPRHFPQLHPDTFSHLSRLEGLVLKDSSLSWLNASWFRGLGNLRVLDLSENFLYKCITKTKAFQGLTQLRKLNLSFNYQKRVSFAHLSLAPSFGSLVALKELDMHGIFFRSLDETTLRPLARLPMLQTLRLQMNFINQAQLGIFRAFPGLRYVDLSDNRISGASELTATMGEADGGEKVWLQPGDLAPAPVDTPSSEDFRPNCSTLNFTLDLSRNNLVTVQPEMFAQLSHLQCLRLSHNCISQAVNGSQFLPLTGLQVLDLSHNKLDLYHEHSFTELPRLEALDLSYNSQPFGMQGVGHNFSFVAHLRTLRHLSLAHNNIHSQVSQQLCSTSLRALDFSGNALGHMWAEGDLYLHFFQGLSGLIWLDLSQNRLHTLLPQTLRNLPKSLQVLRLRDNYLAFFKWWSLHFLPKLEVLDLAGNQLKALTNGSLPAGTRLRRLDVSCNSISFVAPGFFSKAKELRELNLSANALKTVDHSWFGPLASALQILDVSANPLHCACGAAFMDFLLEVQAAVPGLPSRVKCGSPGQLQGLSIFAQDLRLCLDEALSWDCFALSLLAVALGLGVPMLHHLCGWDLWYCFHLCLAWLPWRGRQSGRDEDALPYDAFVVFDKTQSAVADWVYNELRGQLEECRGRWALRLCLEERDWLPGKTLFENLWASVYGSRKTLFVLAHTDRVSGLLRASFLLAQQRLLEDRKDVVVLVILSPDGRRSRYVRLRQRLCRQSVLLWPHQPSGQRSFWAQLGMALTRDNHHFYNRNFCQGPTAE", "test": "HEK293-Blue-hTLR-9 cells assay (SEAP reporter, ODN2006 stimulation)", "format": "cell-based", "settings": "HEK293-Blue-hTLR9 cells, ODN2006, 20 hrs incubation; read-out: HEK/hTLR9 IC50", "description": "The following tests were carried out in order to determine the activity of the compounds of formula (I), (Ia) or (Ib) in HEK293-Blue-hTLR-7/8/9 cells assay.\nHEK293-Blue-hTLR-9 Cells Assay:\nA stable HEK293-Blue-hTLR-9 cell line was purchased from InvivoGen (Cat.#: hkb-htlr9, San Diego, Calif., USA). These cells were originally designed for studying the stimulation of human TLR9 by monitoring the activation of NF-κB. A SEAP (secreted embryonic alkaline phosphatase) reporter gene was placed under the control of the IFN-β minimal promoter fused to five NF-κB and AP-1-binding sites. The SEAP was induced by activating NF-κB and AP-1 via stimulating HEK-Blue hTLR9 cells with TLR9 ligands. Therefore the reporter expression was declined by TLR9 antagonist under the stimulation of a ligand, such as ODN2006 (Cat.#: tlrl-2006-1, Invivogen, San Diego, Calif., USA), for incubation of 20 hrs. The cell culture supernatant SEAP reporter activity was determined using QUANTI-Blue™ kit (Cat.#: rep-qb1, Invivogen, San Diego, Calif., USA) at a wavelength of 640 nm, a detection medium that turns purple or blue in the presence of alkaline phosphatase.\nHEK293-Blue-hTLR9 cells were incubated at a density of 250,000-450,000 cells/mL in a volume of 170 μL in a 96-well plate in Dulbecco's Modified Eagle's medium (DMEM) containing 4.5 g/L glucose, 50 U/mL penicillin, […], 2 mM L-glutamine, 10% (v/v) heat-inactivated fetal bovine serum with addition of 20 μL test compound in a serial dilution in the presence of final DMSO at 1% and 10 μL of 20 uM ODN2006 in above DMEM, perform incubation under 37° C. in a CO2 incubator for 20 hrs. Then 20 μL of the supernatant from each well was incubated with 180 μL Quanti-blue substrate solution at 37° C. for 2 h and the absorbance was read at 620-655 nm using a spectrophotometer. The signaling pathway that TLR9 activation leads to downstream NF-κB activation has been widely accepted, and therefore similar reporter assay was modified for evaluating TLR9 antagonist.", "units": {"IC50": "nM"}}
{"smiles": "C[C@@H]1CN(c2ccc(C#N)c3ncccc23)C[C@@H]2Cc3cc(OCCN(C)C)ccc3CN21", "note": "[Example 11, 5-[(4R,11aS)-9-[2-(dimethylamino)ethoxy]-4-methyl-1,3,4,6,11,11a-hexahydropyrazino[1,2-b]isoquinolin-2-yl]quinoline-8-carbonitrile]", "IC50": 81}
{"smiles": "C[C@@H]1CN(c2ccc(C#N)c3ncccc23)C[C@@H]2Cc3cc(N4CC5NCCOC5C4)ccc3CN21", "note": "(stereo in doubt) [Example 10, 5-[(4R,11aS)-9-[(4aS,7aS)-3,4,4a,5,7,7a-hexahydro-2H-pyrrolo[3,4-b][1,4]oxazin-6-yl]-4-methyl-1,3,4,6,11,11a-hexahydropyrazino[1,2-b]isoquinolin-2-yl]quinoline-8-carbonitrile]", "IC50": 78.2}
{"smiles": "CO[C@H]1CN(c2ccc3c(c2)C[C@H]2CN(c4ccc(C#N)c5ncccc45)C[C@@H](C)N2C3)C[C@H]1N", "note": "[Example 9, 5-[(4R,11aS)-9-[(3R,4S)-3-amino-4-methoxy-pyrrolidin-1-yl]-4-methyl-1,3,4,6,11,11a-hexahydropyrazino[1,2-b]isoquinolin-2-yl]quinoline-8-carbonitrile]", "IC50": 139}
{"smiles": "C[C@@H]1CN(c2ccc(C#N)c3ncccc23)C[C@@H]2Cc3ccc(N4CCOCC(N)C4)cc3CN21", "note": "(stereo partly drawn) [Example 1, 5-[(4R,11aS)-8-(6-amino-1,4-oxazepan-4-yl)-4-methyl-1,3,4,6,11,11a-hexahydropyrazino[1,2-b]isoquinolin-2-yl]quinoline-8-carbonitrile]", "IC50": 64.6}
{"smiles": "C[C@@H]1CN(c2ccc(C#N)c3ncccc23)C[C@@H]2Cc3cc(N4C[C@@H]5CNCCN5C4=O)ccc3CN21", "note": "(single isomer, unassigned) [Example 17A]", "IC50": 107}
{"smiles": "C[C@@H]1CN(c2ccc(C#N)c3ncccc23)C[C@@H]2Cc3cc(N4CC5CCNCC5C4=O)ccc3CN21", "note": "(stereo partly drawn) [Example 18, 5-[(4R,11aS)-4-methyl-9-(3-oxo-3a,4,5,6,7,7a-hexahydro-1H-pyrrolo[3,4-c]pyridin-2-yl)-1,3,4,6,11,11a-hexahydropyrazino[1,2-b]isoquinolin-2-yl]quinoline-8-carbonitrile]", "IC50": 64.6}
{"smiles": "C[C@@H]1CN(c2ccc(C#N)c3ncccc23)C[C@@H]2Cc3cc(N4C[C@@H]5C[C@H]4CN5C(=O)C(C)(C)N)ccc3CN21", "note": "[Example 15, 5-[(4R,11aS)-9-[(1S,4S)-5-(2-amino-2-methyl-propanoyl)-2,5-diazabicyclo[2.2.1]heptan-2-yl]-4-methyl-1,3,4,6,11,11a-hexahydropyrazino[1,2-b]isoquinolin-2-yl]quinoline-8-carbonitrile]", "IC50": 125}
{"smiles": "C[C@@H]1CN(c2ccc(C#N)c3ncccc23)C[C@@H]2Cc3cc(N[C@@H]4CNC[C@@H]4F)ccc3CN21", "note": "[Example 6, 5-[(4R,11aS)-4-methyl-9-[[(3R,4S)-4-fluoropyrrolidin-3-yl]amino]-1,3,4,6,11,11a-hexahydropyrazino[1,2-b]isoquinolin-2-yl]quinoline-8-carbonitrile]", "IC50": 106}
{"smiles": "C[C@@H]1CN(c2ccc(C#N)c3ncccc23)C[C@@H]2Cc3cc(N4C[C@H]5CNCCN5C4=O)ccc3CN21", "note": "(single isomer, unassigned) [Example 17B]", "IC50": 106}
{"smiles": "C[C@@H]1CN(c2ccc(C#N)c3ncccc23)C[C@@H]2Cc3cc(N4CC(N)CC4=O)ccc3CN21", "note": "(stereo partly drawn) [Example 16, 5-[(4R,11aS)-9-(4-amino-2-oxo-pyrrolidin-1-yl)-4-methyl-1,3,4,6,11,11a-hexahydropyrazino[1,2-b]isoquinolin-2-yl]quinoline-8-carbonitrile]", "IC50": 125}
{"smiles": "C[C@@H]1CN(c2ccc(C#N)c3ncccc23)C[C@@H]2Cc3cc(N4CC5CNCCC5C4=O)ccc3CN21", "note": "(stereo partly drawn) [Example 19, 5-[(4R,11aS)-4-methyl-9-(1-oxo-3a,4,5,6,7,7a-hexahydro-3H-pyrrolo[3,4-c]pyridin-2-yl)-1,3,4,6,11,11a-hexahydropyrazino[1,2-b]isoquinolin-2-yl]quinoline-8-carbonitrile]", "IC50": 44.5}
{"smiles": "CO[C@H]1CNC[C@H]1Nc1ccc2c(c1)C[C@H]1CN(c3ccc(C#N)c4ncccc34)C[C@@H](C)N1C2", "note": "[Example 7, 5-[(4R,11aS)-9-[[(3R,4S)-4-methoxypyrrolidin-3-yl]amino]-4-methyl-1,3,4,6,11,11a-hexahydropyrazino[1,2-b]isoquinolin-2-yl]quinoline-8-carbonitrile]", "IC50": 109}
{"smiles": "C[C@@H]1CN(c2ccc(C#N)c3ncccc23)C[C@@H]2Cc3ccc(NCCN4CC[C@H](O)C4)cc3CN21", "note": "[Example 2, 5-[(4R,11aS)-8-[2-[(3S)-3-hydroxypyrrolidin-1-yl]ethylamino]-4-methyl-1,3,4,6,11,11a-hexahydropyrazino[1,2-b]isoquinolin-2-yl]quinoline-8-carbonitrile]", "IC50": 44.5}
{"smiles": "C[C@@H]1CN(c2ccc(C#N)c3ncccc23)C[C@@H]2Cc3ccc(OCCN(C)C)cc3CN21", "note": "[Example 5, 5-[(4R,11aS)-8-[2-(dimethylamino)ethoxy]-4-methyl-1,3,4,6,11,11a-hexahydropyrazino[1,2-b]isoquinolin-2-yl]quinoline-8-carbonitrile]", "IC50": 96.3}
{"smiles": "C[C@@H]1CN(c2ccc(C#N)c3ncccc23)C[C@@H]2Cc3cc(N4C[C@@H](F)[C@@H](N)C4)ccc3CN21", "note": "[Example 8, 5-[(4R,11aS)-9-[(3S,4R)-3-amino-4-fluoro-pyrrolidin-1-yl]-4-methyl-1,3,4,6,11,11a-hexahydropyrazino[1,2-b]isoquinolin-2-yl]quinoline-8-carbonitrile]", "IC50": 85.3}
{"smiles": "C[C@@H]1CN(c2ccc(C#N)c3ncccc23)C[C@@H]2Cc3cc(OC[C@@H]4CCN4)ccc3CN21", "note": "[Example 12, 5-[(4R,11aS)-9-[[(2S)-azetidin-2-yl]methoxy]-4-methyl-1,3,4,6,11,11a-hexahydropyrazino[1,2-b]isoquinolin-2-yl]quinoline-8-carbonitrile]", "IC50": 116}
{"smiles": "C[C@@H]1CN(c2ccc(C#N)c3ncccc23)C[C@@H]2Cc3cc(N4CCN(C(=O)[C@]5(C)CCCN5)CC4)ccc3CN21", "note": "[Example 14, 5-[(4R,11aS)-4-methyl-9-[4-[(2S)-2-methylpyrrolidine-2-carbonyl]piperazin-1-yl]-1,3,4,6,11,11a-hexahydropyrazino[1,2-b]isoquinolin-2-yl]quinoline-8-carbonitrile]", "IC50": 254}
{"smiles": "C[C@@H]1CN(c2ccc(C#N)c3ncccc23)C[C@@H]2Cc3cc(N4CCN(C(=O)C(C)(C)N)CC4)ccc3CN21", "note": "[Example 13, 5-[(4R,11aS)-9-[4-(2-amino-2-methyl-propanoyl)piperazin-1-yl]-4-methyl-1,3,4,6,11,11a-hexahydropyrazino[1,2-b]isoquinolin-2-yl]quinoline-8-carbonitrile]", "IC50": 85.6}
